Assay results from a melting point compilation (Tetko et al.; mined from patent text by program, amines drawn as free bases though some values may be those of a salt).

Row | Structure (SMILES) | melting point
1 | N#Cc1cccc(C=Cc2cccc(F)c2)n1 | 111 to 112 °C
2 | Cn1c(=O)c(-c2c(Cl)cccc2Cl)cc2cnc(Nc3ccc(CC(=O)O)cc3)nc21 | 286 to 290 °C
3 | CCCN(CCC)C(=O)CNc1nc(-c2ccccc2)nc2c1CCCC2 | 87 to 88 °C
4 | COc1cc2c(C)c(C)sc2c(Cl)c1Cl | 159 to 160 °C
5 | Cc1cc(-c2nc3cc4c(cc3[nH]2)C(C)(C)CC(=O)N4)[nH]n1 | 242 to 245 °C
6 | CCCCc1oc2ccccc2c1C(=O)N(C)Cc1ccc2c(Br)c(OCc3nnn[nH]3)ccc2c1 | 190 to 194 °C
7 | CSC(=S)NCc1c[nH]c2ccccc12 | 132 to 133 °C
8 | CSC(=S)NN=Cc1c[nH]cn1 | 259 to 261 °C
9 | Nc1nc2ccc3ccc(CNc4ccc(F)cc4)cc3c2c(=O)[nH]1 | > 230 °C
10 | CC(=O)NCC(=O)N1CC(=O)NC1(C)C | 214 to 215 °C
11 | CCN(CC)CCCCC1CCN(CC(=O)N2c3ccccc3NC(=O)c3c2ccn3C)CC1 | 198 °C
12 | COc1nc(NC(=O)NS(=O)(=O)c2ccsc2C(=O)C2CC2)nc(OC)n1 | 146 to 148 °C
13 | COCCOCC(=O)C1CCC2C3CCC4CC(O)CCC4(C)C3C(=O)CC12C (stereo not given) | 115 to 121 °C
14 | O=C1c2ccccc2C(=O)c2oc(-c3ccc(Cl)cc3)nc21 | > 260 °C
15 | CC(C)(C)c1cc(C(C)(C)C)c2oc(-c3cccc([N+](=O)[O-])c3O)nc2c1 | 148 to 150 °C
16 | CO[C@@H]1COCC[C@]1(OC)c1cccc(OCc2ccc3ccccc3c2)c1 (racemic) | 86 to 88 °C
17 | CCCCNc1cc(CN(Cc2ccccc2)C(C)=O)cc(S(N)(=O)=O)c1Oc1ccccc1 | 75 to 77 °C
18 | CCOC(=O)c1cnc2ccc(CC)nc2c1O | 262 to 264 °C
19 | C[C@@H](O)[C@H](NC(=O)Cc1ccccc1)C(=O)O | 118 to 120 °C
20 | Cc1cc(SCc2ccc(-c3ccc(C(F)(F)F)cn3)cc2)c2c(c1OCC(=O)O)CCO2 | 94 to 95 °C
21 | CCCCCC(C)Nc1nnc(-c2cccc(Oc3ccc(C(C)(C)C)cc3)c2)s1 (stereo not given) | 115 to 116 °C
22 | CC(C)(C)OC(=O)NC(=O)C(c1ccccc1)c1ccccc1 | 160 to 162 °C
23 | COC(=O)C(CCCCNC(=O)c1ccc(NC(=O)OCc2ccccc2)cc1)n1c2ccccc2c2ccccc21 (stereo not given) | 87 to 88 °C
24 | COc1ccc(C(=O)c2ccccc2N)cn1 | 60 to 62 °C
25 | O=C(c1c(F)cccc1F)n1c(-c2c(F)cccc2F)nc2ccccc21 | 145 °C

Row | Structure (SMILES) | melting point
26 | CC(C)(C)Cc1c(CC(C)(C)C(=O)O)n(Cc2ccc(Cl)cc2)c2ccc(OCc3ccc4occc4n3)cc12 | 172 to 173 °C
27 | CCN(CC)C(=O)c1cnn(C)c1C(=O)Nc1ccn2nc(-c3ccccc3)nc2c1 | 177 to 179 °C
28 | O=C(NCCc1ccccc1Cl)c1c(Cl)ccc2nc(N3CC[C@H](NCCO)C3)ccc12 | 170 to 172 °C
29 | O=C1C(=CCc2ccccc2)SC(=S)N1N=c1sc2ccccc2s1 | 233 to 234 °C
30 | CC(C)Nc1nc(-n2cc(C(=O)O)c(=O)c3cc(F)c(N4CC(N)C4)c(Cl)c32)c(F)cc1F | 220 to 223 °C
31 | CCCCCCCCCC(=O)NCCCCCC(=O)OO | 63 to 67 °C
32 | Sc1nnc(-c2ccc(Cl)cc2)s1 | 178 °C
33 | CC(=O)N[C@H]1C[C@@H](c2cc(NC(=O)Cc3cccc4ccccc34)n[nH]2)C1 | 209 °C
34 | Nc1cccc(-c2ccc(CCN3CCN(C(=O)Cc4ccc(Cl)cc4)CC3)cc2)n1 | 205 °C
35 | Oc1nc(Cc2ccc(F)cc2)ncc1F | 169 to 170 °C
36 | O=C(O)Cc1ccc(CCNS(=O)(=O)c2ccc(Cl)cc2)s1 | 138 °C
37 | CN(C)c1ccc2c(c1)C(=O)C(n1ccnc1)CC2 (stereo not given) | 160 to 162 °C
38 | Nc1nc(Nc2ccccc2)sc1C(=O)c1cccs1 | 84 to 85 °C
39 | COc1ccc2[nH]c([S+]([O-])Cc3ncc(C)c(OC)c3C)nc2n1 (stereo not given) | 224 to 226 °C
40 | CCCCc1ccc(CCCCC(NC(C)=O)(C(=O)OCC)C(=O)OCC)cc1 | 60 to 61 °C
41 | COC(=O)CCC(=O)c1ccc(-c2ccc(Br)cc2F)cc1 | 94 to 95 °C
42 | COc1cc(OC)cc(C(=CC#N)c2ccc3c(c2)nc(C)n3C)c1 | 199 to 201 °C
43 | NC(=O)Cc1nc(C(=O)c2ccc(F)cc2)no1 | 197 to 199 °C
44 | COC(=O)C(C)Oc1ccc(NC(=O)CCCCCO)cc1 (stereo not given) | 62 to 64.5 °C
45 | O=C(NCc1ccccc1)C1c2ccccc2-c2ccccc21 | 195 to 200 °C
46 | O=[N+]([O-])c1ccc(-n2ccnc2)cc1Sc1cccc2cnccc12 | 178 to 188 °C
47 | CSc1ccc(-c2nc(SC)c(C#N)c(=O)n2-c2ccc(C)cc2C)cc1 | 203 to 205 °C
48 | O=C(C1CCNCC1)N1CCN(c2cccc3[nH]ccc23)CC1 | > 240 °C
49 | Cn1c(C(F)(F)F)cc(=O)n(-c2cc(OCC3CO3)c(Cl)cc2F)c1=O (stereo not given) | 93 to 96 °C
50 | CCOC(=O)C1CC(=O)c2nc(C)n(C)c2C1 (stereo not given) | 148 to 150 °C
